Key:
[1] = Cytotoxicity in un-infected human HeLa Rh cells assessed as reduction in cell viability incubated for 3 days by MTT assay; type: cell-based
rhinovirus B14 = test: Antiviral activity against Human rhinovirus B14 infected in human HeLa Rh cells assessed as protection against virus induced cytopathic effect after 3 days in presence of 10% inactivated FBS by MTT assay; type: functional, organism-based; settings: Rhinovirus B, 72 h
[2] = Selectivity index, ratio of CC50 for un-infected human HeLa Rh cells to EC50 for Human rhinovirus B14 infected in human HeLa Rh cells; type: toxicity, cell-based; settings: read-out: Ratio CC50/EC50

Row | Structure (SMILES) | CC50 at 72 h [1] [µM] | EC50 (rhinovirus B14) [µM] | selectivity ratio [2]
1 | COc1cc(CC(O)c2ccc(C#N)cc2)c([N+](=O)[O-])cc1OC (stereo not drawn) | 178 | 2.3 | 77.3
2 | COc1cc(C[C@H](O)c2ccc(-n3cccn3)cc2)c([N+](=O)[O-])cc1OC | > 271 | 0.35 | > 774
3 | COc1cc(CC(O)c2ccc(-c3cnn(C)c3)cc2)c([N+](=O)[O-])cc1OC (stereo not drawn) | 17.4 | > 270 | 
4 | COc1cc(C[C@H](O)c2ccc(C#N)cc2)c([N+](=O)[O-])cc1OC | 178 | 0.26 | 685
5 | COc1cc(CC(O)c2ccncc2)c([N+](=O)[O-])cc1OC (stereo not drawn) | > 263 | 3.4 | > 77
6 | COc1cc(CC(O)c2ccc(N3CCCC3)cc2)c([N+](=O)[O-])cc1OC (stereo not drawn) | > 269 | 1.94 | > 139
7 | COc1cc(C[C@@H](O)c2ccc(-n3cccn3)cc2)c([N+](=O)[O-])cc1OC | > 271 | 42 | > 6.5
8 | COc1cc(CC(O)c2ccc(N3CCNCC3)cc2)c([N+](=O)[O-])cc1OC (stereo not drawn) | > 258 | 238 | 
9 | COc1cc(C[C@@H](O)c2ccc(-n3cncn3)cc2)c([N+](=O)[O-])cc1OC | > 271 | > 50 | 
10 | COc1cc(C[C@H](O)c2cccnc2)c([N+](=O)[O-])cc1OC | > 200 | 0.59 | > 339
11 | COc1cc(CC(O)c2ccc(C(F)(F)F)cc2)c([N+](=O)[O-])cc1OC (stereo not drawn) | 49.7 | 2 | 
12 | COc1cc(CC(O)c2ccc(-c3ccsc3)cc2)c([N+](=O)[O-])cc1OC (stereo not drawn) | 11.5 | 0.54 | 21.3
13 | COc1cc(CC(O)c2ccc(-c3cc(C(F)(F)F)nn3C)cc2)c([N+](=O)[O-])cc1OC (stereo not drawn) | 12.1 | > 222 | 
14 | COc1cc(C[C@@H](O)c2ccc(-c3cn[nH]c3)cc2)c([N+](=O)[O-])cc1OC | > 271 | 35.6 | > 7.74
15 | COc1cc(C[C@H](O)c2ccncc2)c([N+](=O)[O-])cc1OC | > 200 | 1.16 | > 172
16 | COc1cc(C[C@H](O)c2ccc(C(F)(F)F)cc2)c([N+](=O)[O-])cc1OC | 41.8 | 0.46 | 90.8
17 | COc1cc(CC(O)c2ccc(-c3cn[nH]c3)cc2)c([N+](=O)[O-])cc1OC (stereo not drawn) | > 271 | 0.76 | > 356

Row | Structure (SMILES) | CC50 at 72 h [1] [µM] | EC50 (rhinovirus B14) [µM] | selectivity ratio [2]
18 | COc1cc(CC(O)c2ccc(-c3ccco3)cc2)c([N+](=O)[O-])cc1OC (stereo not drawn) | 32 | 0.61 | 52.5
19 | COc1cc(C[C@@H](O)c2cccnc2)c([N+](=O)[O-])cc1OC | > 200 | > 200 | 
20 | COc1cc(C[C@@H](O)c2ccncc2)c([N+](=O)[O-])cc1OC | 55.2 | > 200 | 
21 | CCOC(=O)N1CCN(c2ccc(C(O)Cc3cc(OC)c(OC)cc3[N+](=O)[O-])cc2)CC1 (stereo not drawn) | 33.8 | 18.1 | 1.9
22 | COc1cc(CC(O)c2ccc(-n3cncn3)cc2)c([N+](=O)[O-])cc1OC (stereo not drawn) | > 271 | 0.92 | > 295
23 | COc1cc(CC(O)c2ccc(-n3cccn3)cc2)c([N+](=O)[O-])cc1OC (stereo not drawn) | > 271 | 0.58 | > 467
24 | COc1cc(CC(O)c2ccc(-c3cncnc3)cc2)c([N+](=O)[O-])cc1OC (stereo not drawn) | > 271 | 2.22 | > 122
25 | COc1cc(C[C@@H](O)c2ccc(C#N)cc2)c([N+](=O)[O-])cc1OC | 178 | 10.6 | 16.8
26 | COc1cc(C[C@@H](O)c2ccc(C(F)(F)F)cc2)c([N+](=O)[O-])cc1OC | 13.9 | > 200 | 
27 | COc1cc(C[C@H](O)c2ccc(-n3cncn3)cc2)c([N+](=O)[O-])cc1OC | > 271 | 0.34 | > 797
28 | COc1cc(C[C@H](O)c2ccc(-c3cn[nH]c3)cc2)c([N+](=O)[O-])cc1OC | > 271 | 0.25 | > 1080
29 | COc1cc(CC(O)c2ccc(N3CCC(C)CC3)cc2)c([N+](=O)[O-])cc1OC (stereo not drawn) | > 250 | 1.91 | > 131
30 | COc1cc(CC(O)c2ccc(N3CCOCC3)cc2)c([N+](=O)[O-])cc1OC (stereo not drawn) | 193 | 11.7 | 16.5
31 | COc1cc(CC(O)c2ccc(N3CCCCC3)cc2)c([N+](=O)[O-])cc1OC (stereo not drawn) | 53.9 | 1.88 | 28.7
32 | COc1cc(CC(O)c2cccnc2)c([N+](=O)[O-])cc1OC (stereo not drawn) | > 263 | 2 | > 131
33 | COc1cc(CC(O)c2ccc(-c3ccc(C(F)(F)F)nc3)cc2)c([N+](=O)[O-])cc1OC (stereo not drawn) | 152 | 8.96 | 16.9
34 | Cc1cc(CCCOc2c(C)cc(-c3noc(C(F)(F)F)n3)cc2C)on1 [PLECONARIL] | > 131 |  | > 437

— ChEMBL document CHEMBL4190367, “Heterocyclic pharmacochemistry of new rhinovirus antiviral agents: A combined computational and experimental study” (Eur J Med Chem, 2017)
